Laboratory results published in US8609663B2, “Compounds for modulating TLR2” (priority 2009, dated 2013).
Entries after “also recorded” stand apart in the source; their conditions may differ.

Columns and labels:
[1] = test system: LCMV-induced NF-κB activity; assay: cells; format: cell-based, human; conditions: for IC50: Homo sapiens, HEK293, read-out: 50% Inhibitory Dose
[2] = test system: cytokine responses in mouse primary macrophages; format: cell-based
[3] = test system: TNF-α-induced NF-κB activity; format: cell-based, human
[4] = test system: LCMV-induced IL-8 production; format: cell-based, human
[5] = test system: TNF-α-induced IL-8 production; format: cell-based, human
TLR2 = format: cell-based, human
HLA-ABC = format: cell-based, human
LCMV [6] = format: cell-based, lymphocytic choriomeningitis virus (LCMV)
LCMV [7] = format: cell-based, lymphocytic choriomeningitis virus (LCMV); conditions: 3.3 μM
LCMV-Arm [8] = format: cell-based, lymphocytic choriomeningitis virus (LCMV)
[9] = test system: IL-8 production in primary human monocytes; format: cell-based
[10] = test system: HSV-induced NF-κB activation; assay: HSV-induced NF-κB luciferase assay in SZ10 cells; format: cell-based, human; conditions: HSV-1 7134R
[11] = test system: Pam2CSK4 (TLR2 ligand) and LPS (TLR4 ligand) induced cytokine production; design: species or system C57BL/6 mice; conditions: mouse
LCMV-Arm [12] = format: in vivo, C57BL/6 mice
HSV-1 = HSV-1 (VP16-GFP strain) replication in Vero cells, GFP fluorescence; format: cell-based, Herpes simplex virus 1 (HSV-1); conditions: 24 hours, dose-dependent manner
Tacaribe virus (TCRV) = format: cell-based
[13] = test system: Rift Valley Fever Virus (RVFV); format: cell-based
[14] = Preliminary toxicity observation in mice; conditions: injected intravenously at 16.67 mg/kg (200 μg/mouse)

For `O=C(COCc1cc(-c2ccco2)on1)Nc1cccnc1` [Compound 122], the “% Inhibition” value [1] was 50%, the “LCMV-induced NF-κB activity and cytokine response” value [1] was “specifically inhibit” and the IC50 [1] was 3.3 µM. The “Pam2CSK4 induced RANTES in vitro in macrophages” value [2] was “inhibit”.

With `CCOc1ccc(CCNC(=O)c2nc(-c3cccnc3)no2)cc1` [Compound 120] the “% Inhibition” value [1] was 75%, the “LCMV-induced NF-κB activity and cytokine response” value [1] was “specifically inhibit” and the IC50 [1] was 0.8 µM.

With `CC1CCN(Cc2ccc(NC(=O)Nc3cccs3)cc2)CC1` [Compound 107] the “% Inhibition” value [1] was 47% and the IC50 [1] was 3 µM.

For `O=C(NCCc1ccccc1)c1nnc(-c2cccnc2)o1` [Compound 110], the “% Inhibition” value [1] was 40% and the IC50 [1] was greater than 6.6 µM.

In the case of `O=C1CC(c2ccc(F)cc2)CC2=C1C=Nc1ccccc1N2` (centres unmarked) [Compound 133], the “% Inhibition” value [1] is reported as 60%, the “LCMV-induced NF-κB activity and cytokine response” value [1] is reported as “specifically inhibit” and the IC50 [1] is reported as 0.8 µM.

For `O=C(CCS(=O)(=O)c1nc(-c2ccc3c(c2)OCO3)cc(C(F)(F)F)n1)Nc1ccc(OC(F)(F)F)cc1` [Compound 125], the “% Inhibition” value [1] was 60%, the “LCMV-induced NF-κB activity and cytokine response” value [1] was “specifically inhibit” and the IC50 [1] was 0.8 µM.

For `COc1cc(/C=C/C(=O)CC(=O)/C=C/c2ccc(O)c(OC)c2)ccc1O` [Curcumin, reference compound], the “LCMV-induced NF-κB activation” value [1] was “effectively blocked”.

In the case of `Cc1ccc2onc(CNC(=O)Nc3ccc(CN4CCC(C)CC4)cc3)c2c1` [Compound 101], the “% Inhibition” value [1] is reported as 60% and the IC50 [1] is reported as 1.6 µM.

In the case of `O=C(CN(C1=NC2CS(=O)(=O)CC2S1)c1ccc(F)cc1)Nc1ccccc1C(F)(F)F` (centres unmarked) [Compound 134], the “% Inhibition” value [1] is reported as 50%, the “LCMV-induced NF-κB activity and cytokine response” value [1] is reported as “specifically inhibit” and the IC50 [1] is reported as 1.6 µM.

In the case of `Cc1ccc2onc(CNC(=O)Nc3cccc(C(F)(F)F)c3)c2c1` [Compound 102], the “% Inhibition” value [1] is reported as 27% and the IC50 [1] is reported as greater than 6.6 µM.

In the case of `COc1cc(CCNC(=O)c2nnc(-c3cccnc3)o2)cc(OC)c1` [Compound 112], the “% Inhibition” value [1] is reported as 65% and the IC50 [1] is reported as 0.4 µM.

With `O=C(NCCc1ccc(O)cc1)c1nnc(-c2cccnc2)o1` [Compound 114] the “% Inhibition” value [1] was 31% and the IC50 [1] was greater than 6.6 µM.

With `COC(=O)c1ccc(NC(=O)NCc2noc3ccccc23)cc1` [Compound 106] the “% Inhibition” value [1] was 75% and the IC50 [1] was 1.6 µM.

For `COc1ccc(C2C3=C(CCCC3=O)Nc3[nH]nc(-c4ccc(Cl)cc4)c32)cc1OC` (centres unmarked) [Compound 132], the “% Inhibition” value [1] was 75%, the “LCMV-induced NF-κB activity and cytokine response” value [1] was “specifically inhibit” and the IC50 [1] was 0.8 µM.

With `CC(C)[C@]12O[C@H]1[C@@H]1O[C@]13[C@]1(O[C@H]1C[C@H]1C4=C(CC[C@@]13C)C(=O)OC4)[C@@H]2O` [Triptolide, reference compound] the “LCMV-induced NF-κB activation” value [1] was “effectively blocked”.

With `O=C(NCc1cccnc1)c1ccc(CSCc2cccc(F)c2)o1` [Compound 121] the “% Inhibition” value [1] was 60%, the “LCMV-induced NF-κB activity and cytokine response” value [1] was “specifically inhibit” and the IC50 [1] was 0.8 µM.

With `CC1CCN(Cc2ccc(NC(=O)Nc3cn(C)c(=O)c4ccccc34)cc2)CC1` [Compound 108] the “% Inhibition” value [1] was 39% and the IC50 [1] was greater than 6.6 µM.

For `O=C(NCCc1ccc(O)c(O)c1)c1nnc(-c2cccnc2)o1` [Compound 115], the “% Inhibition” value [1] was 40% and the IC50 [1] was greater than 6.6 µM.

For `CCc1ccc(CCNC(=O)c2nnc(-c3cccnc3)o2)cc1` [Compound 113], the “% Inhibition” value [1] was 30% and the IC50 [1] was greater than 6.6 µM.

With `COc1ccc(CCC(C)NC(=O)c2nnc(-c3cccnc3)o2)cc1` (centres unmarked) [Compound 117] the “% Inhibition” value [1] was 27% and the IC50 [1] was greater than 6.6 µM.

With `O=C(NCCc1cccc(Cl)c1)c1nnc(-c2cccnc2)o1` [Compound 118] the “% Inhibition” value [1] was 50% and the IC50 [1] was 3.3 µM.

With `O=C(NCCc1ccc(-c2ccccc2)cc1)c1nnc(-c2cccnc2)o1` [Compound 116] the “% Inhibition” value [1] was 50% and the IC50 [1] was 0.8 µM.

In the case of `O=C(Nc1cccnc1)c1ccc(NC(=O)C2OCCc3ccccc32)cc1` (centres unmarked) [Compound 135], the “% Inhibition” value [1] is reported as 60%, the “LCMV-induced NF-κB activity and cytokine response” value [1] is reported as “specifically inhibit” and the IC50 [1] is reported as 0.8 µM.

In the case of `COc1cccc(NC(=O)NCc2noc3ccccc23)c1` [Compound 105], the “% Inhibition” value [1] is reported as 20% and the IC50 [1] is reported as greater than 6.6 µM.

With `Cc1ccc2onc(CNC(=O)Nc3ccccc3N3CCN(C)CC3)c2c1` [Compound 109] the “% Inhibition” value [1] was 39% and the IC50 [1] was greater than 6.6 µM.

In the case of `O=C(NCc1noc2ccccc12)Nc1cccc(Cl)c1` [Compound 103], the “% Inhibition” value [1] is reported as 26% and the IC50 [1] is reported as greater than 6.6 µM.

In the case of `O=C(/C=C/c1ccc(O)c(O)c1)OCCc1ccccc1` [CAPE, reference compound], the “LCMV-induced NF-κB activation” value [1] is reported as “effectively blocked”.

In the case of `CC1CCN(Cc2ccc(NC(=O)NCc3noc4ccccc34)cc2)CC1` [Compound 100], the “% Inhibition” value [1] is reported as 80%, the “LCMV-induced NF-κB activity” value [1] is reported as “dramatically inhibited” and the “LCMV-induced NF-κB activity and cytokine response” value [1] is reported as “specifically inhibit”. For the same compound, the IC50 [1] was 1 µM, the “TNF-α-induced NF-κB activity” value [3] was “did not affect” and the “LCMV-induced IL-8 production” value [4] was “dramatically inhibited”. For the same compound, the “TNF-α-induced IL-8 production” value [5] was “did not affect”, the “LCMV-induced enhanced expression of TLR2” value (TLR2) was “specifically prevented” and the “TNF-α-induced expression of TLR2” value (TLR2) was “did not affect”. The “expression of HLA-ABC” value (HLA-ABC) was “did not affect; also recorded: not affected”, the “LCMV replication (expression of LCMV-NP) in SZ10 cells” value (LCMV [6]) was “significantly inhibited; also recorded: dramatically inhibited” and the “LCMV replication in HEK cells that did not express TLR2” value (LCMV [6]) was “could also inhibit”. The “LCMV replication in Vero cells” value (LCMV [7]) was “significantly inhibited”, the “LCMV replication in BHK-21 cells” value (LCMV-Arm [8]) was “inhibited” and the “LCMV induced IL-8 production” value [9] was “significant (p<0,01 by two-tailed Student's t test) reduction”. For the same compound, the “poly IC induced production of IL-8” value [9] was “did not affect”, the “recombinant human TNF-α induced production of IL-8” value [9] was “did not affect” and the “HSV-1 induced MCP-1 production” value [2] was “efficiently blocked”. For the same compound, the “HSV-1 induced RANTES production” value [2] was “efficiently blocked”, the “LCMV induced production of MCP-1” value [2] was “significantly inhibited” and the “LCMV induced production of RANTES” value [2] was “significantly inhibited”. For the same compound, the “LPS induced MCP-1 production” value [2] was “inhibited”, the “Pam2CSK4 induced MCP-1 production” value [2] was “inhibited” and the “Pam2CSK4 induced RANTES in vitro in macrophages” value [2] was “inhibit”. The “poly IC induced production of MCP-1” value [2] was “did not affect”, the “poly IC induced production of RANTES” value [2] was “did not affect” and the “HSV-induced NF-κB activation” value [10] was “Blocks”. For the same compound, the “LPS induced IL-6 induction in vivo” value [11] was “inhibits”, the “Pam2CSK4 induced IL-6 induction in vivo” value [11] was “inhibits” and the “LPS induced IL-6 production in serum” value ([11]; in vivo, iv) was “significantly blocked”. For the same compound, the “LPS induced MCP-1 production in serum” value ([11]; in vivo, iv) was “significantly blocked”, the “LPS-induced RANTES production in serum” value ([11]; in vivo, iv) was “did not affect” and the “Pam2CSK4-induced RANTES production in serum” value ([11]; in vivo, iv) was “did not affect”. The “Pam2CSK4 induced IL-6 production in serum” value ([11]; in vivo, iv) was “significantly blocked”, the “Pam2CSK4 induced MCP-1 production in serum” value ([11]; in vivo, iv) was “significantly blocked” and the “levels of virus in the spleen” value (LCMV-Arm [12]; 48 h post-infection, n=8, p<0.05 vs DMSO-treated or untreated mice) was “significantly lower”. For the same compound, the “LCMV-induced inflammation in a mouse model” value (LCMV-Arm [12]; Example 13, i.v. 16.67 mg/kg (200 μg/mouse), serum MCP-1) was “Inhibits”, the “LCMV induced MCP-1 production in serum” value (LCMV-Arm [12]; single dose 400 μg/mouse (16 mg/kg), 18 h post-infection, vs DMSO) was “significant decrease” and the “LCMV induced type I IFN production” value (LCMV-Arm [12]; single dose 400 μg/mouse, 18 h post-infection) was “did not affect”. The HSV-1 replication (HSV-1) was “inhibits”, the “replication and production of TCRV” value (Tacaribe virus (TCRV)) was “can inhibit” and the “activity against RVFV” value [13] was “no role”. The “toxic effect in mice” value [14] was “no apparent toxic effect”.

With `C=C1C(=O)O[C@@H]2C[C@@H](C)[C@@H]3C=CC(=O)[C@@]3(C)[C@@H](O)[C@H]12` [Helenalin, reference compound] the “LCMV-induced NF-κB activation” value [1] was “effectively blocked”.
